Results: patent US10988474B2, “Compounds acting at multiple prostaglandin receptors giving a general anti-inflammatory response” (ALLERGAN, INC., priority 2011, dated 2021)

Assays:
Type in all cases: cell-based
[1] = target: T1, human prostanoid EP3 receptor (Homo sapiens, UniProt P43115); assay: FLIPR Ca2+ signaling PG antagonist assay, EP3 stable cell line; details: HEK-293 EBNA cells, human recombinant EP3 with chimeric Gqi; standard agonist PGE2
T1 construct: expressed in transfected cells
T1 sequence (P43115 1-390): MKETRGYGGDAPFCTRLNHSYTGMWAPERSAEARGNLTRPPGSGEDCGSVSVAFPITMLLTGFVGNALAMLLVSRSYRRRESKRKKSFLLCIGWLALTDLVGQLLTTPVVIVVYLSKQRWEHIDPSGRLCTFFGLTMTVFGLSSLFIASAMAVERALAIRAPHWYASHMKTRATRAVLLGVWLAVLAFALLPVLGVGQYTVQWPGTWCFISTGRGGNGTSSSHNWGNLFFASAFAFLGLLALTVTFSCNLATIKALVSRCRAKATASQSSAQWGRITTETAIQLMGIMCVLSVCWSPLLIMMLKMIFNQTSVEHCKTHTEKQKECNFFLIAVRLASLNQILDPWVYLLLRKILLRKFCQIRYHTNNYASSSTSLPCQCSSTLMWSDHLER
Method: (§1) The above compounds were tested for PG antagonist activity as follows using human recombinant prostanoid receptor (DP1, EP1-4, FP, IP and TP) stable cell lines: In order to measure the response of Gs and Gi coupled prostanoid receptors as a Ca^2+ signal, chimeric G protein cDNAs were used. Stable cell lines over-expressing human prostanoid DP1, EP1-4, FP, IP, and TP receptors were established as follows:
(§2) Briefly, human prostanoid DP1, EP2, and EP4 receptor cDNAs were co-transfected with chimeric Gqs cDNA containing a haemagglutanin (HA) epitope; human prostanoid EP3 receptors were co-transfected with chimeric Gqi-HA; human EP1, FP, IP, and TP receptor cDNAs were expressed with no exogenous G-proteins. Gqs and Gqi chimeric cDNAs (Molecular Devices, Sunnyvale, Calif., U.S.A.), as well as cDNAs of prostanoid receptors, were cloned into a pCEP4 vector with a hygromycin B selection marker. Transfection into HEK-293 EBNA (Epstein-Barr virus nuclear antigen) cells was achieved by the FuGENE 6 transfection Reagent (Roche Applied Science, Indianapolis, Ind., USA). Stable transfectants were selected according to hygromycin resistance. Because Gqs and Gqi contained an HA epitope, G-protein expression was detected by Western blotting analysis using anti-mouse HA monoclonal antibody and horseradish peroxidase (HRP)-conjugated secondary antibody, while functional expression of prostanoid receptors was detected by FLIPR screening (Matias et al., 2004). These stable cell lines were validated using previously published antagonists at 10 μM against serial dilutions of standard agonists by FLIPR functional assays for Ca^2+ Signaling (as described below).
(§3) Ca^2+ signaling studies were performed using a FLIPR TETRA system (Molecular Devices, Sunnyvale, Calif., USA) in the 384-format. This is a high-throughput instrument for cell-based assays to monitor Ca^2+ signaling associated with GPCRs and ion channels. Cells were seeded at a density of 5×10^4 cells/well in BioCoat poly-D-lysine coated, black wall, clear bottom 384-well plates (BD Biosciences, Franklin lakes, NJ, USA) and allowed to attach overnight in an incubator at 37° C. The cells were then washed twice with HBSS-HEPES buffer (Hanks' balanced salt solution without bicarbonate and phenol red, 20 mM HEPES, pH 7.4) using an ELx405 Select CW Microplate Washer (BioTek, Winooski, Vt., USA). After 60 min of dye-loading in the dark using the Ca^2+-sensitive dye Fluo-4AM (Invitrogen, Carlsbad, Calif., USA), at a final concentration of 2×10^−6M, the plates were washed 4 times with HBSS-HEPES buffer to remove excess dye and leaving 50 μl of buffer in each well. The plates were then placed in the FLIPR TETRA instrument and allowed to equilibrate at 37° C. Compounds were added in a 25 μl volume to each well to give final concentrations of 0.1 μM, 0.3 μM, 1 μM, 3 μM, 10 μM, and 30 μM; or 0.067 μM, 0.1 μM, 0.2 μM, 0.3 μM, 0.67 μM, and 1 μM for cells over-expressing TP receptors. After 4.5 minutes, a 7-point serial dilution of the standard agonist for the corresponding receptor, in a 25 μl volume was injected at the final concentrations from 10^−11M to 10^−5M in 10-fold serial dilution increments for cells expressing human recombinant DP1, EP1, EP2, EP3, EP4, FP, and IP receptors. The dose range for the standard agonist for human recombinant TP receptors was from 10^−12M to 10^−6M. HBSS-HEPES buffer was used as the negative control for the standard agonists. Cells were excited with LED (light emitting diode) excitation at 470-495 nm and emission was measured through an emission filter at 515-575 nm. Assay plates were read for 3.5 minutes using the FLIPR^TETRA. The peak increase in fluorescence intensity was recorded for each well. On each plate, negative controls, dose response of positive controls, and co-treatments of antagonist-agonist for each dose were in triplicates. Standard agonists were as follows: DP=BW 245C, EP1-EP4=PGE2, FP=17-phenyl-PGF2α, IP=Cicaprost, and TP=U-46619. […]

[2] = target: T2, human prostanoid IP receptor (Homo sapiens, UniProt P43119); assay: FLIPR Ca2+ signaling PG antagonist assay, IP stable cell line; details: HEK-293 EBNA cells, human recombinant IP, no exogenous G-protein; standard agonist Cicaprost
T2 construct: expressed in transfected cells
T2 sequence (P43119 whole entry): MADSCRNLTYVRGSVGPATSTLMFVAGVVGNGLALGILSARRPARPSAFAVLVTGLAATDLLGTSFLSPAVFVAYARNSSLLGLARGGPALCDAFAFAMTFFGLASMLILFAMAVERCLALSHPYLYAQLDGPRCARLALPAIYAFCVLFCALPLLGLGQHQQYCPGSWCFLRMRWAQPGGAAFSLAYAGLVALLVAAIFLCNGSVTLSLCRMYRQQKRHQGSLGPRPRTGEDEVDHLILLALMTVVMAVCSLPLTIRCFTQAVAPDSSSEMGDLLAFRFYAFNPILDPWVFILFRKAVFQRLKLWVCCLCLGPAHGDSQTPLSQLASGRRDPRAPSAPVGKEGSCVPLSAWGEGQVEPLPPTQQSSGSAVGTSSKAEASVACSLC
Method: as §1, §2, §3

[3] = target: T3, human prostanoid TP receptor (Homo sapiens, UniProt P21731); assay: FLIPR Ca2+ signaling PG antagonist assay, TP stable cell line; details: HEK-293 EBNA cells, human recombinant TP, no exogenous G-protein; standard agonist U-46619
T3 construct: expressed in transfected cells
T3 sequence (P21731 1-343): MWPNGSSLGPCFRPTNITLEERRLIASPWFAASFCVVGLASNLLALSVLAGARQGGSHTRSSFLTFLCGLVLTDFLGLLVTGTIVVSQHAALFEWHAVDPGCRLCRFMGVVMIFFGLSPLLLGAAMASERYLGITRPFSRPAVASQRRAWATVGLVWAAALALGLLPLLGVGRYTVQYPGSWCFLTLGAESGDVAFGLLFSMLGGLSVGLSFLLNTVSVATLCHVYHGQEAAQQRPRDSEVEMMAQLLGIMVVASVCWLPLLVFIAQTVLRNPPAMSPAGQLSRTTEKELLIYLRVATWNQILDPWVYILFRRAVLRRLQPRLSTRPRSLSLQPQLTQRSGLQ
Method: as §1, §2, §3

Row | IP (Kb, PG antagonist activity) [2] | TP (Kb, PG antagonist activity) [3] | Compound | Kb [1] [nM] | Kb [2] [nM] | Kb [3] [nM]
1 | PAg | Ag | O=C(O)c1cccc2c1cnn2Cc1cc(Cl)ccc1OCc1ccc(Cl)cc1 [Example 40, 1-[5-Chloro-2-(4-Chloro-Benzyloxy)-Benzyl]-1H-Indazole-4-Carboxylic Acid] | ≥ 12000 |  | 
2 | PAg |  | O=C(O)c1ccc2cnn(Cc3cc(Br)ccc3OCC3CCCC3)c2c1 [Example 44, 1-(5-Bromo-2-Cyclopentylmethoxy-Benzyl)-1H-Indazole-6-Carboxylic Acid] | 1600 |  | 1

Second part, the compound before the results:

Row | Compound | IP (Kb, PG antagonist activity) [2] | TP (Kb, PG antagonist activity) [3] | Kb [1] [nM] | Kb [2] [nM] | Kb [3] [nM]
3 | CCC(CC)COc1ccc(Br)cc1Cn1nc(C)c2cc(C(=O)O)ccc21 [Example 27, 1-[5-Bromo-2-(2-Ethyl-Butoxy)-Benzyl]-3-Methyl-1H-Indazole-5-Carboxylic Acid] |  |  | 2600 | 440 | 20
4 | Cc1nn(Cc2cc(Br)ccc2OCC2(C)CC2)c2ccc(C(=O)O)cc12 [Example 28, 1-[5-Bromo-2-(1-Methyl-Cyclopropylmethoxy)-Benzyl]-3-Methyl-1H-Indazole-5-Carboxylic Acid] |  |  | 2220 | 1530 | 7
5 | O=C(O)c1ccc2c(cnn2Cc2cc(C(F)(F)F)ccc2OCc2ccc(Cl)cc2)c1 [Example 32, 1-[2-(4-Chloro-Benzyloxy)-5-Trifluoromethyl-Benzyl]-1H-Indazole-5-Carboxylic Acid] |  |  | ≥ 10000 | 7400 | 50
6 | O=C(O)c1ccc2c(cnn2Cc2cc(C(F)(F)F)ccc2OCC2CCCC2)c1 [Example 33, 1-(2-Cyclopentylmethoxy-5-Trifluoromethyl-Benzyl)-1H-Indazole-5-Carboxylic Acid] |  |  | 1400 | 400 | 1
7 | O=C(O)c1cccc2c1cnn2Cc1cc(Cl)ccc1OCC1CC1 [Example 34, 1-(5-Chloro-2-Cyclopropylmethoxy-Benzyl)-1H-Indazole-4-Carboxylic Acid] |  |  | ≥ 10000 | ≥ 10000 | 100
8 | O=C(O)c1cccc2nn(Cc3cc(Cl)ccc3OCC3CC3)cc12 [Example 35, 2-(5-Chloro-2-Cyclopropylmethoxy-Benzyl)-2H-Indazole-4-Carboxylic Acid] |  |  | ≥ 10000 | ≥ 10000 | 1200
9 | CC(C)COc1ccc(Cl)cc1Cn1ncc2c(C(=O)O)cccc21 [Example 36, 1-(5-Chloro-2-Isobutoxy-Benzyl)-1H-Indazole-4-Carboxylic Acid] |  |  | 4000 | 200 | 3
10 | CC(C)COc1ccc(Cl)cc1Cn1cc2c(C(=O)O)cccc2n1 [Example 37, 2-(5-Chloro-2-Isobutoxy-Benzyl)-2H-Indazole-4-Carboxylic Acid] |  |  | 3400 | ≥ 10000 | 200
11 | CCC(CC)COc1ccc(Cl)cc1Cn1ncc2c(C(=O)O)cccc21 [Example 38, 1-[5-Chloro-2-(2-Ethyl-Butoxy)-Benzyl]-1H-Indazole-4-Carboxylic Acid] |  |  | 1700 | 60 | 3
12 | CCC(CC)COc1ccc(Cl)cc1Cn1cc2c(C(=O)O)cccc2n1 [Example 39, 2-[5-Chloro-2-(2-Ethyl-Butoxy)-Benzyl]-2H-Indazole-4-Carboxylic Acid] |  |  | 5500 | 4900 | 110
13 | O=C(O)c1cccc2nn(Cc3cc(Cl)ccc3OCc3ccc(Cl)cc3)cc12 [Example 41, 2-[5-Chloro-2-(4-Chloro-Benzyloxy)-Benzyl]-2H-Indazole-4-Carboxylic Acid] |  |  | ≥ 10000 | 9800 | 7400
14 | CC(C)COc1ccc(Br)cc1Cn1ncc2ccc(C(=O)O)cc21 [Example 42, 1-(5-Bromo-2-Isobutoxy-Benzyl)-1H-Indazole-6-Carboxylic Acid] |  |  | 1900 | 3400 | 20
15 | O=C(O)c1ccc2cn(Cc3cc(Br)ccc3OCC3CCCC3)nc2c1 [Example 45, 2-(5-Bromo-2-Cyclopentylmethoxy-Benzyl)-2H-Indazole-6-Carboxylic Acid] |  |  | ≥ 10000 | 7000 | 80
16 | CCC(CC)COc1ccc(Cl)cc1Cn1ncc2ccc(C(=O)O)cc21 [Example 46, 1-[5-Chloro-2-(2-Ethyl-Butoxy)-Benzyl]-1H-Indazole-6-Carboxylic Acid] |  |  | ≥ 10000 | ≥ 10000 | 150
17 | CC(C)COc1c(F)cc(Cl)cc1Cn1ncc2cc(C(=O)O)ccc21 [Example 47, 1-(5-Chloro-3-Fluoro-2-Isobutoxy-Benzyl)-1H-Indazole-5-Carboxylic Acid] |  |  | ≥ 10000 | 4800 | ≥ 10000
18 | CC(C)COc1ccc(S(C)(=O)=O)cc1Cn1ncc2cc(C(=O)O)ccc21 [Example 48, 1-(2-Isobutoxy-5-Methanesulfonyl-Benzyl)-1H-Indazole-5-Carboxylic Acid] |  |  | ≥ 10000 | ≥ 10000 | 500
19 | CC(C)COc1cc(Cl)c(Cl)cc1Cn1ncc2cc(C(=O)O)ccc21 [Example 49, 1-(4,5-Dichloro-2-Isobutoxy-Benzyl)-1H-Indazole-5-Carboxylic Acid] |  |  | ≥ 10000 | 3200 | 6
20 | Cc1ccc(OCC(C)C)c(Cn2ncc3cc(C(=O)O)ccc32)n1 [Example 50, 1-(3-Isobutoxy-6-Methyl-Pyridin-2-ylmethyl)-1H-Indazole-5-Carboxylic Acid] |  |  | 7100 | ≥ 10000 | 5700
21 | CCC(CC)Oc1ccc(Br)cc1Cn1ncc2cc(C(=O)O)ccc21 [Example 51, 1-[5-Bromo-2-(1-Ethyl-Propoxy)-Benzyl]-1H-Indazole-5-Carboxylic Acid] |  |  | 2600 | 1100 | 50
22 | CC(C)(C)COc1ccc(Br)cc1Cn1ncc2cc(C(=O)O)ccc21 [Example 52, 1-[5-Bromo-2-(2,2-Dimethyl-Propoxy)-Benzyl]-1H-Indazole-5-Carboxylic Acid] |  |  | 2100 | ≥ 10000 | 2
